These are literature values, as cited in paper PMC8198792, “Prediction of Anticancer Peptides with High Efficacy and Low Toxicity by Hybrid Model Based on 3D Structure of Peptides” (International Journal of Molecular Sciences, 2021).

Read-outs that look alike come from different tables or passages of the source.

The subject of data set [1] is erythrocytes. To be noted: cited from earlier work. From the text:
Supplement ijms-22-05630-s001.zip/Hemloytic Peptides(seguence).xlsx, sheet "HD1" | column: Activity || Supplement ijms-22-05630-s001.zip/Hemloytic Peptides(seguence).xlsx, sheet "HD2" | column: Activity || Supplement ijms-22-05630-s001.zip/Hemloytic Peptides(seguence).xlsx, sheet "HD3" | column: Activity

Data set [2] has as its system cancer cell lines. Further details: method as in 6 sources, ref CancerPPD [45] and SATPdb ||| ref CancerPPD/SATPdb ||| ref CancerPPD, SATPdb, Swissprot (PDB) ||| ref CancerPPD/SATPdb/Swissprot(PDB) ||| ref CancerPPD / SATPdb ||| ... To be noted: cited from earlier work. From the text: Supplement ijms-22-05630-s001.zip/ACPs(seguence).xlsx, sheet "D1" | column: Activity || Supplement ijms-22-05630-s001.zip/ACPs(seguence).xlsx, sheet "D2" | column: Activity || Supplement ijms-22-05630-s001.zip/ACPs(seguence).xlsx, sheet "D3" | column: Activity || (+ 2 further places)

Setting [3] is: Hemolytic peptides dataset HD2, label 1 = hemolytic, 0 = non-hemolytic, ref Hemolytik/SATPdb.
Setting [4] is: hemolytic peptides dataset HD3, 1 = hemolytic (positive set), 0 = non-hemolytic (negative set), labels taken from databases, ref Hemolytik/SATPdb.
The mark [5] stands for this setting: ACPs dataset D1, label 1 = ACP, 0 = non-ACP (non-anticancer AMPs from SATPdb), ref CancerPPD/SATPdb.
The mark [6] stands for this setting: ACPs dataset D4 (sheet "D4"), label 1 = ACP, 0 = non-ACP, ref CancerPPD / SATPdb.
The mark [7] stands for this setting: ACPs dataset D1, 1 = ACP (positive), 0 = non-ACP (negative), label taken from databases, ref CancerPPD [45] and SATPdb.
Where [8] appears, read: ACPs dataset D4 (sheet "D4"), label 1 = ACP (CancerPPD ID), 0 = non-ACP (non-anticancer AMP, SATPdb ID), ref CancerPPD [45] and SATPdb.
[9] abbreviates: ACPs dataset D4 (sheet "D4"), label 1 = ACP, experimentally validated ACPs, ref CancerPPD [45] and SATPdb.
Where [10] appears, read: ACPs dataset D5 (sheet "D5"), label 1 = ACP (positive set), sequences with CancerPPD/SATPdb ID, ref CancerPPD, SATPdb.
The mark [11] stands for this setting: ACPs dataset sheet D2, 1 = ACP (CancerPPD/SATPdb ID), 0 = non-ACP (Swissprot/PDB ID), ref CancerPPD, SATPdb, Swissprot (PDB).
Where [12] appears, read: ACPs dataset D3 (supplement sheet "D3"), 1 = ACP, 0 = non-ACP, ref CancerPPD [45] and SATPdb.
[13] abbreviates: ACPs dataset D5 (sheet "D5"), label 1 = ACP (positive set), 0 = non-ACP (negative set), ref CancerPPD [45] and SATPdb.

As for AAGMGFFGAR [satpdb25191], the Activity in data set [1] (setting [3]) and in data set [1] (setting [4]) was 0 throughout. Turning to KKKKKKALFAAWAAFLA [compound 1151], the Activity in data set [1] was 1. As for “GFLGPLLKLGLKGVAKVIPHLIPSRQQ [satpdb16038]”, in data set [1], the Activity is recorded as 1 and the “Activity (dataset HD1, hemolytic 1 / non-hemolytic 0)” value was 1. For KAACAAKCLWR [satpdb24099], the Activity in data set [1] is reported as 0. As to GLWSTIKNVGKEAAIAAGKAALGAL [satpdb11818], the Activity in data set [1] was 0. Take WKKIPKFLHLAKKF [satpdb14752]: the Activity in data set [1] is on record as 0. For the substance “GLWSKIKTAGKSVAKAAAKAAVKAVTNAV [satpdb14676]”, in data set [1], the Activity is listed as 1 and the “Activity (dataset HD1, hemolytic 1 / non-hemolytic 0)” value is 1. With KWKLFKKIPKFLHLAKKF [compound 2405], the Activity in data set [1] (setting [3]) and in data set [1] (setting [4]) was 0 each time. In the case of CVHWQTNPARTSCIGP [satpdb12022], in data set [1], the Activity is reported as 0 and the “Activity (dataset HD1, hemolytic 1 / non-hemolytic 0)” value was 0. With “KWKSFLkTFKSLKKTVLHTLLKAISS [satpdb10544]”, the Activity in data set [1] was 1. As for “ALLHHGLNCAKGVLAALLHHGLNCAKGVLA [satpdb21285]”, in data set [1], the Activity is recorded as 0 and the “Activity (dataset HD1, hemolytic 1 / non-hemolytic 0)” value was 0. Regarding SFPFFPPGICKRLKRC [satpdb23345], in data set [1], the Activity was 0 and the “Activity (dataset HD1, hemolytic 1 / non-hemolytic 0)” value is on record as 0. As for “KWKSFLRTFKSPVRTVFHTALKPISS [satpdb15241]”, in data set [1], the Activity was 1 and the “Activity (dataset HD1, hemolytic 1 / non-hemolytic 0)” value is reported as 1.

Consider KKKKKKAAWAAWAAWAA [satpdb17717], for which, in data set [1], the Activity is recorded as 0.

For the substance RGGRLAYCRRRFCVAVGR [satpdb25189], the Activity in data set [1] is given as 0. As for KSLRRVWRSWR [satpdb26460], the Activity in data set [1] was 0. In the case of LLLKLLKLLLKLLLKLLK [compound 3688], the Activity in data set [1] is recorded as 1. HVDKKVADKVLLLKQLRIMRLLTRL [satpdb19920]: in data set [1], the Activity was 0 and the “Activity (dataset HD1, hemolytic 1 / non-hemolytic 0)” value is recorded as 0.

For the substance GIHDILKYGKPS [satpdb19051], in data set [1], the Activity is 0 and the “Activity (dataset HD1, hemolytic 1 / non-hemolytic 0)” value is listed as 0. Regarding KKKKKKAAFALWLAFAA [compound 1148], in data set [1], the Activity is on record as 1. With “GGLRSLGRKILRAWKKYGPIIVPIIRIG [satpdb22390]”, in data set [1], the Activity is on record as 0 and the “Activity (dataset HD1, hemolytic 1 / non-hemolytic 0)” value is recorded as 0.

As for KRLFKKLLFSLRKY [satpdb21867], in data set [1], the Activity is recorded as 0 and the “Activity (dataset HD1, hemolytic 1 / non-hemolytic 0)” value was 0.

For the substance GWANTLKNVAGGLCKITGAA [satpdb14607], in data set [1], the Activity was 1 and the “Activity (dataset HD1, hemolytic 1 / non-hemolytic 0)” value is recorded as 1. On to KNLRRITRKIIHIIKKYG [satpdb15247], for which, in data set [1], the Activity was 1 and the “Activity (dataset HD1, hemolytic 1 / non-hemolytic 0)” value was 1. In the case of VGKTWIKVIRGIGKSKIKWQ [satpdb28870], in data set [1], the Activity is on record as 0 and the “Activity (dataset HD1, hemolytic 1 / non-hemolytic 0)” value is 0. Turning to KWKKLLKKPLKLKL [satpdb22005], in data set [1], the Activity is 0.

For KVAKQEKKKKKTGRAKRR [satpdb15637], in data set [1], the Activity is 1 and the “Activity (dataset HD1, hemolytic 1 / non-hemolytic 0)” value was 1. For the substance KSLVRRWRSRW [satpdb18185], in data set [1], the Activity was 0.

Consider GCRFCCNCCPNMSGCGVCCRF [satpdb21740], for which the Activity in data set [1] (setting [4]) is 0. In data set [1] (natural hemolytic peptide dataset HD1, label collected from databases, ref Hemolytik [49], SATPdb [34]), the “Activity (dataset HD1, hemolytic 1 / non-hemolytic 0)” value is on record as 0. On to KWKFKKIPKFLHLAKKF [satpdb23702], for which the Activity in data set [1] (setting [3]) and in data set [1] (setting [4]) was 0 throughout. As for ILPWKLPLLPLRR [satpdb15320], the Activity in data set [1] is recorded as 0. Regarding KKAFAAAAAFAAWAAFAKKKK [satpdb16931], the Activity in data set [1] is listed as 0.

Regarding KKLFKKILkYL [satpdb24648], in data set [1], the Activity is recorded as 0. Take KWKLFKKIPKFLHLAK [satpdb17849]: the Activity in data set [1] (setting [3]) and in data set [1] (setting [4]) was 0 throughout.

With KKVVFKVKFK [satpdb13312], in data set [1], the Activity is 0. As to KLLKLLLKLLKLLLKLLLKLLK [compound 3828], the Activity in data set [1] is given as 1. As to “KKKKKKKKKKGIGKFLHSAKKFGKAFVGEIMNS [satpdb13667]”, in data set [1], the Activity is 0 and the “Activity (dataset HD1, hemolytic 1 / non-hemolytic 0)” value is given as 0.

For the substance AKKVFKRLEKSFSKIQNDK [satpdb11458], in data set [1], the Activity is on record as 0 and the “Activity (dataset HD1, hemolytic 1 / non-hemolytic 0)” value is 0. On to FLPLIGRVLSGIL [satpdb12693], for which the Activity in data set [1] is reported as 1. In the case of GLLSGTSVRGSI [satpdb16160], in data set [1], the Activity was 1 and the “Activity (dataset HD1, hemolytic 1 / non-hemolytic 0)” value is on record as 1.

For the substance KKKKKKALFALWLAFAA [compound 1153], the Activity in data set [1] is 1. For the substance KKKKKKALFALWLAFLA [compound 1155], the Activity in data set [1] was 1.

For the substance HYRIKPTFRRLKWKYKGKFW [satpdb11796], in data set [1], the Activity was 1 and the “Activity (dataset HD1, hemolytic 1 / non-hemolytic 0)” value is 1.

For KWKWKW [satpdb24601], the Activity in data set [1] was 0. As to KKKKKKLLFAAWAAFAA [compound 1152], the Activity in data set [1] is listed as 1.

Turning to ILPLKLPWLPLRR [satpdb11800], the Activity in data set [1] is reported as 0. For the substance SWSSFFKKAAHSGKHVGKSASTHYL [satpdb15741], the Activity in data set [1] is 0. For LCYARRRFAVCV [satpdb13142], the Activity in data set [2] (setting [5]) and in data set [2] (setting [6]) was 0 each time. As to GMATKAGTAFGKAAKAIIGAAL [satpdb11334], the Activity in data set [2] (setting [7]) and in data set [2] (setting [8]) was 0 each time. Take TEWSACNVRCGRGWQKRSR [satpdb12052]: the Activity in data set [2] (setting [7]), in data set [2] (setting [9]), in data set [2] (setting [10]) and in data set [2] (setting [11]) was 1 throughout. Turning to GLFDIIKKIAESF [compound 1252], the Activity in data set [2] (setting [12]), in data set [2] (setting [8]) and in data set [2] (setting [13]) was 1 in each case.

Regarding TEWSACSKTCGMGISTRV [satpdb13253], the Activity in data set [2] (setting [7]), in data set [2] (setting [9]), in data set [2] (setting [10]) and in data set [2] (setting [11]) was 1 each time. Consider GLFAVIKKVAAVIKKL [compound 4120], for which the Activity in data set [2] (setting [12]), in data set [2] (setting [8]) and in data set [2] (setting [13]) was 1 each time. In the case of PRFWEYWLRLAE [compound 4587], the Activity in data set [2] (setting [7]), in data set [2] (setting [9]), in data set [2] (setting [10]) and in data set [2] (setting [11]) was 1 throughout. As for “GLPVCGETCTLGTCYTQGCTCSWPICKRN [satpdb13318]”, the Activity in data set [2] (setting [5]) and in data set [2] (setting [6]) was 0 throughout.

As to GKWMSLLKHILK [compound 3649], the Activity in data set [2] (setting [12]), in data set [2] (setting [8]) and in data set [2] (setting [13]) was 1 each time.

For GLLKRIKTLL [2MJQ NMR - A 1-10], the Activity in data set [2] (setting [13]) and in data set [2] (setting [11]) was 0 each time. For the substance FLKWLFKWAKK [compound 1716], the Activity in data set [2] (setting [12]), in data set [2] (setting [9]) and in data set [2] (setting [10]) was 1 in each case. As for GLLGSIFGAGKKIACALSGLC [satpdb11926], the Activity in data set [2] (setting [5]) and in data set [2] (setting [8]) was 0 throughout. For KWKLFKKIPLHLAKKF [compound 1139], the Activity in data set [2] (setting [12]), in data set [2] (setting [8]) and in data set [2] (setting [13]) was 1 each time. In the case of “GLPVCGETCFGGTCNTPGCTCDPWPVCTRN [compound 4427]”, the Activity in data set [2] (setting [7]), in data set [2] (setting [9]), in data set [2] (setting [10]) and in data set [2] (setting [11]) was 1 in each case. For the substance GIIKKIIKKIIKKI [compound 2840], the Activity in data set [2] (setting [12]), in data set [2] (setting [8]) and in data set [2] (setting [13]) was 1 each time. EDGLHPRLCSC [satpdb11408]: the Activity in data set [2] (setting [5]) and in data set [2] (setting [8]) was 0 in each case.

On to “KNWKK-Aib-LKK-Aib-IK-Aib-VK [compound 3503]”, for which the Activity in data set [2] (setting [12]), in data set [2] (setting [8]) and in data set [2] (setting [13]) was 1 throughout.
